According to PubChem BioAssay (NCI):
“And” between values parts separate entries of the source, which are not always exact repeats. Equal entries are not always repeated.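 Dose response: 5 concentrations. Exposure: 48 h. Format: 96-well plates. Endpoint: linear interpolation; highest concentration if not reached. GI50 marks 50% less growth. The concentration for full growth arrest is given as TGI.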

Tests used:
Assay in all cases: NCI anticancer screen, dose series, 48 h
UO-31 renal = system: UO-31 renal
DLD-1 colon = system: DLD-1 colon
NCI-H522 lung = system: NCI-H522 lung
SK-OV-3 ovarian = system: SK-OV-3 ovarian
OVCAR-3 ovarian = system: OVCAR-3 ovarian
LXFL 529 NSCLC = system: LXFL 529 NSCLC
HOP-62 NSCLC = system: HOP-62 NSCLC
A498 renal = system: A498 renal
MDA-MB-231 breast = system: MDA-MB-231 breast
T-47D breast = system: T-47D breast

| SMILES | TGI (UO-31 renal) | TGI (DLD-1 colon) [µM] | TGI (NCI-H522 lung) [µM] | TGI (SK-OV-3 ovarian) | TGI (OVCAR-3 ovarian) | TGI (LXFL 529 NSCLC) [µM] | TGI (HOP-62 NSCLC) | GI50 (A498 renal) [µM] | TGI (A498 renal) | GI50 (UO-31 renal) [µM] | GI50 (NCI-H522 lung) [µM] | GI50 (SK-OV-3 ovarian) [µM] | GI50 (OVCAR-3 ovarian) [µM] | GI50 (MDA-MB-231 breast) [µM] | TGI (MDA-MB-231 breast) | GI50 (T-47D breast) [µM] | TGI (T-47D breast) [µM] | GI50 (HOP-62 NSCLC) [µM] |
| --- | --- | --- | --- | --- | --- | --- | --- | --- | --- | --- | --- | --- | --- | --- | --- | --- | --- | --- |
| O=S(=O)(c1cccc(N=C=S)c1)c1cccc(N=C=S)c1 | 75.1 µM | 40.7 | 32.8 | 37.3 µM | 24 µM | 28.5 | 26.5 µM | – | – | – | – | – | – | – | – | – | – | – |
| N#CC(C#N)c1ccc(C(=O)N2CCC[C@H]2CO)cc1 | > 100 µM | > 100 | > 100 | > 100 µM | > 100 µM | > 100 | > 100 µM | – | – | – | – | – | – | – | – | – | – | – |
| Cc1cc(C)nc(SC2=C(Nc3cc(Cl)ccc3O)C(=O)N(Cc3ccccc3)C2=O)n1 | > 160 µM | – | > 160 | > 160 µM | 53.2 µM | – | 101 µM | > 160 | > 160 µM | 80.7 | 17.4 | > 160 | 18.8 | 16.8 | 48 µM | 15 | 63.2 | 27.6 |
| NS(=O)(=O)c1ccc(-c2cc3ccncc3cc2OCc2ccccc2)cc1 | > 25 µM | – | > 25 | > 19.3 µM | > 25 µM | – | > 25 µM | 5.65 | > 25 µM | 14.5 | > 17 | 11.1 | 12.1 | 14.6 | > 25 µM | > 19.4 | > 25 | 6.83 |
| CCc1cccc(C)c1NC(=O)c1sc2nc3c(cc2c1N)C(=O)CCC3 | 99.8 µM | – | 3.82 | > 100 µM | 2.74 µM | – | > 100 µM | 0.2 | 0.759 µM | 2.25 | 0.234 | 0.541 | 0.375 | 1.42 | > 100 µM | 0.665 | > 78.5 | 10.7 |
| Cc1cc(N=Nc2ccccc2C)ccc1N | 13.2 µM and 11.3 µM | – | 22.9 | 67 µM and 66.9 µM | 21.8 µM and 23.7 µM | – | 19.2 µM and 36.4 µM | 4.38 | 44.3 µM and 23.8 µM | 0.874 | 6.94 | 22.2 | – | 12.7 | 30.7 µM and 28.4 µM | 13.3 | 78.5 | 15.2 |
| Oc1c(I)cc(I)c2cccnc12 | 21.4 µM | – | > 100 | 29.2 µM | 6.5 µM | – | 26.8 µM | 12.2 | 58 µM | 2.17 | 2.96 | 5.17 | 2.42 | 6.99 | 46.7 µM | 2.88 | 15.6 | 4.85 |
| OCCNC1c2cc(Cl)ccc2-c2c(Cl)cc(Cl)cc21 (stereo not drawn) | > 100 µM | – | > 100 | > 100 µM | 80 µM | – | > 100 µM | – | > 100 µM | – | – | – | – | – | 98.9 µM | – | > 100 | – |
| O=C(CCCCCCN1CC(=O)N2[C@@H](c3ccc(Cl)c(Cl)c3)c3[nH]c4ccccc4c3C[C@H]2C1=O)NO | 8.86 µM | – | 10.5 | 9.81 µM | 6.57 µM | – | 9.35 µM | 5.28 | 9.92 µM | 3.52 | 3.21 | 4.58 | 1.62 | 3.47 | 9.31 µM | 1.58 | 25.2 | 3.88 |
| CC1OC(OC2C(O)CC(OC3C(O)CC(OC4CCC5(C)C(CCC6C5CC(O)C5(C)C(C7=CC(=O)OC7)CCC65O)C4)OC3C)OC2C)CC(O)C1O (stereo not drawn) | 0.148 µM | – | 0.0639 | 0.171 µM | 0.113 µM | – | 0.125 µM | 0.107 | 0.544 µM | 0.0377 | 0.0225 | 0.0513 | 0.033 | 0.205 | 0.616 µM | 0.0538 | 0.292 | 0.036 |
| CC(=O)NCc1cccc(C#Cc2cncnc2Nc2ccc(OCc3cccc(F)c3)c(Cl)c2)c1 | > 21.1 µM | – | > 22.4 | > 25 µM | > 25 µM | – | > 25 µM | 3.52 | 24.8 µM | 3.25 | 6.55 | > 12.9 | 11.6 | > 25 | > 25 µM | 9.68 | > 25 | > 25 |
| CC(C)(O)CNc1nc(Nc2ccnc(C(F)(F)F)c2)nc(-c2cccc(C(F)(F)F)n2)n1 | 50.4 µM | – | 49.3 | 68.3 µM | 52 µM | – | 52.8 µM | 16.1 | 37.2 µM | 19.9 | 18.6 | 26.6 | 20.1 | 19.1 | 45.6 µM | 17.7 | 56.7 | 21.4 |
| COC(=O)c1cncc(/C=C/c2c(C)cc(O)cc2C)c1 | > 25 µM | – | 17.1 | 24.8 µM | > 21.1 µM | – | > 20.5 µM | 11 | > 25 µM | 14.5 | 5.67 | 8.01 | 10.1 | 7.19 | > 23 µM | 11 | > 22.2 | 9.82 |
| O=C(O)CCC(=O)c1ccc2sc3ccccc3c2c1 | > 100 µM | – | > 100 | > 100 µM | > 100 µM | – | > 100 µM | – | > 100 µM | – | – | – | – | – | > 100 µM | – | > 100 | – |
| Cc1ccc(-c2nc([P+](c3ccccc3)(c3ccccc3)c3ccccc3)c(S(=O)(=O)c3ccc(C)cc3)o2)cc1 | 2.6 µM | – | 3.67 | 12.5 µM | 2.07 µM | – | 4.56 µM | 1.61 | 4.77 µM | 1.32 | 1.6 | 3.74 | 0.755 | 1.52 | 2.93 µM | 1.99 | 5.23 | 1.47 |
| O=C(O)c1cccc(C(=O)O)c1S(=O)Cc1ccccc1 (stereo not drawn) | > 100 µM | – | > 100 | > 100 µM | > 100 µM | – | > 100 µM | – | > 100 µM | – | – | – | – | – | > 100 µM | – | > 100 | – |
